Legend:
[1] = target: T1, Matr (Homo sapiens, UniProt P09237); assay: In vitro metalloprotease inhibition assay (thiopeptide/DACM fluorescence); type: biochemical; details: read-out: Ki or IC50 Matr
T1 sequence (P09237 95-267): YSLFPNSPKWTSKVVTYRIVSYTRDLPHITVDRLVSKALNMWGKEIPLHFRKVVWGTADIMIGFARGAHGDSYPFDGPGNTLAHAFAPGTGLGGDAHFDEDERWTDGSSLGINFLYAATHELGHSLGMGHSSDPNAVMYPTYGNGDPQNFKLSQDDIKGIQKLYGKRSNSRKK

[2] = system: cartilage explants; assay: Release of 35S-labelled glycosaminoglycans from cartilage explants; type: cell-based; details: Bos taurus; inhibition of rhIL-1-alpha induced release of 35S-labelled GAG's, bovine knee joint cartilage explants
Procedure: This assay determines if the compounds of formula (I) inhibit the release of ^35S-labelled glycosaminoglycans (GAG's) from cartilage explants.
Small cartilage explants (3 mm diameter) were prepared from freshly sacrificed bovine knee joints and labeled with ^35SO4. ^35S-labelled glycosaminoglycans (GAG's) are released into the culture medium in response to the addition of rhIL-1-alpha, which induces the expression of chondrocyte matrix metalloproteases (MMP's), including stromelysin and collagenase. The percent inhibition of labeled GAG's was corrected for spontaneous release in the absence of rhlL-1-alpha. Results for each group represent the mean ± the S.E.M. for five explants.

[3] = target: HNG (Homo sapiens, UniProt P14780); assay: In vitro metalloprotease inhibition assay (thiopeptide/DACM fluorescence); type: biochemical; details: read-out: Ki or IC50 HNG
Chain of HNG (P14780 107-707 limits assumed): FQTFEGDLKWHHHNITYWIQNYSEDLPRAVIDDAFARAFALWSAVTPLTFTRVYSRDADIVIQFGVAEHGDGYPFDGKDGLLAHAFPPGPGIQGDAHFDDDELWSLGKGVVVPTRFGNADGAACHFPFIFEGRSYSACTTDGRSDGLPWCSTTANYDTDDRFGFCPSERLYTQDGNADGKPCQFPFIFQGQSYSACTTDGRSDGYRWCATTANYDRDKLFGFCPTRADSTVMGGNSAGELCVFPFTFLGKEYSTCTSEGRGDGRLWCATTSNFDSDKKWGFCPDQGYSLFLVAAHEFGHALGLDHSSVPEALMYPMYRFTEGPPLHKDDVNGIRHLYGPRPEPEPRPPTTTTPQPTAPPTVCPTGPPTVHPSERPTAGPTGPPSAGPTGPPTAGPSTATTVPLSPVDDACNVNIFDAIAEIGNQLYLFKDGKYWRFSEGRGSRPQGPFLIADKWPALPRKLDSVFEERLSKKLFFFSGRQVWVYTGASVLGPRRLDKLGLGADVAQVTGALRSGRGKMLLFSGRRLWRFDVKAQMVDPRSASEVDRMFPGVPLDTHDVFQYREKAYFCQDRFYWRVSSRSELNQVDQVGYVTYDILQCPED
Procedure: (§1) Compounds of formula (I) were dissolved in DMSO and added to a cuvette containing 0.2 µg Type I or 0.03 µg Type IV collagenase in 1 ml TC buffer (20mM Tris, 5mM CaCl2, pH 7.5) (2% DMSO final concentration). The concentrations of the compounds of formula (I) were chosen such that there was at least one data point for every 20% change in activity. Enzyme and compounds were permitted to pre-incubate 3 min at 37°C. To initiate the reaction, N-(7-dimethylamino-4-methyl)coumarinyl ("DACM") (Sigma) and thiopeptide (Ac-Pro-Leu-Gly-S-"Leu"-Leu-Gly-OEt, Bachem Bioscience Inc.) were added to 20 uM each. […] Each data point is the average of duplicate experiments. At least six data points, expressed as change in fluorescence per minute versus compound concentration were analyzed using the IC50 fit in the program, Enzfitter.

[4] = target: SLN (Homo sapiens, UniProt P08254); assay: as above; type: biochemical
Chain of SLN (P08254 100-477): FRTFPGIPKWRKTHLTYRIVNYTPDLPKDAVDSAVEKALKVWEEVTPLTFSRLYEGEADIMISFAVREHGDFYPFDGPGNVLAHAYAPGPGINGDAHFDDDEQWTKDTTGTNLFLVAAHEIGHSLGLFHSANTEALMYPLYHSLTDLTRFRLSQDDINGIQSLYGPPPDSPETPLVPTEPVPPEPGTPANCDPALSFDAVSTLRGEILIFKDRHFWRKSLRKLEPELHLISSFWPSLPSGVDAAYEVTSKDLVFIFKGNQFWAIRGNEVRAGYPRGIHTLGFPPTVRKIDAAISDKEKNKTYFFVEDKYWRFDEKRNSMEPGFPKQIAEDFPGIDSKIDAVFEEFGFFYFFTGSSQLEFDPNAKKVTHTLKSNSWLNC

[5] = target: HNC (Homo sapiens, UniProt P22894); assay: as above; type: biochemical
Chain of HNC (P22894 101-467): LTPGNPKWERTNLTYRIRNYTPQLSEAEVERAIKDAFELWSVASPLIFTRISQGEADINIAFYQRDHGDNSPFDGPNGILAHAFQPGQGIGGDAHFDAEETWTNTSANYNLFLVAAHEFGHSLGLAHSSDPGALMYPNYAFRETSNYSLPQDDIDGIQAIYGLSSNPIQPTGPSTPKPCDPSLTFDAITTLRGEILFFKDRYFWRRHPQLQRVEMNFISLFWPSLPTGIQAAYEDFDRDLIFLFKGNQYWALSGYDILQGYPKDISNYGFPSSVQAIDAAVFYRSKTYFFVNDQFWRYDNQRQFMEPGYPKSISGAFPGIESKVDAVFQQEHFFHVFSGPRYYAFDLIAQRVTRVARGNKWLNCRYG

[6] = system: fetal rat long bones; assay: Fetal rat long bone model, bovine PTH induced bone resorption (45Ca release); type: cell-based; details: 144 h
Text: An in vitro fetal rat long bone model was used to study the anti-bone resorptive effect of the compounds of formula (I). Bovine PTH was used to induce bone resorption in vitro. The bone resorptive effects were expressed by the amounts of ^45Ca released from the ^45Ca pre-labelled fetal rat long bones into the culture medium. The inhibitory effect of the compounds of formula (I) against bovine PTH induced bone resorption was expressed as mean percent inhibition ± sem.
^45Ca-prelabelled fetal rat long bones (from forearms) were dissected and cultured in Linbro dishes at 37°C overnight BGJb medium, supplemented with 1mg/ml BSA. There were five pairs of bones in each group. The compounds of formula (I) were dissolved in ethanol first, then diluted to various concentrations and added simultaneously with Bovine PTH (1-34) at 1x10^8M on Day 1. […] The assay was terminated on Day 6 with one media change on Day 3.
At the end of each medium change, the ^45Ca present in the culture medium was counted. The remaining bones were digested with 0.1N HCl and the ^45Ca presented in the bone digest was also counted. The results are expressed as % of the total ^45Ca released from each pair of bones. Bovine PTH at 1x10^-8M induces bone resorption to the maximum level which is set as 100% and this concentration was used as standard. […]

[7] = target: T2, HFC (Homo sapiens, UniProt P03956); assay: In vitro collagenase inhibition assay (thiopeptide/DACM fluorescence); type: biochemical
T2 construct: endogenous in cells; host or cells: GM0010A fibroblasts stimulated with PMA; enzyme purified from serum-free culture medium
T2 sequence (P03956 100-469): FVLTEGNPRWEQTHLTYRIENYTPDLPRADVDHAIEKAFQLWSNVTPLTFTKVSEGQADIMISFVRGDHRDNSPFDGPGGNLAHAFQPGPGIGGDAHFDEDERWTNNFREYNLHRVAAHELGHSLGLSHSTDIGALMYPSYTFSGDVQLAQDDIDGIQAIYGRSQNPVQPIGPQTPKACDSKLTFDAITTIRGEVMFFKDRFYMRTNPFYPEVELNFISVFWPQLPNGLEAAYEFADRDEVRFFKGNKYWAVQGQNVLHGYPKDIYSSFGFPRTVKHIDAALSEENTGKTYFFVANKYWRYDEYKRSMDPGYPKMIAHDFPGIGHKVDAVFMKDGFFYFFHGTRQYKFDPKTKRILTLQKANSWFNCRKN
Procedure: as §1

| Structure (SMILES) | IC50 [1] | IC50 [2] | IC50 [3] | IC50 [4] | IC50 [5] | IC50 [6] | IC50 [7] |
| --- | --- | --- | --- | --- | --- | --- | --- |
| CC(C)CC(CC(=O)NO)C(=O)N[C@H]1Cc2cn(c3ccccc23)CCCCCCCNC1=O (stereo partly drawn) [Compound 2, (11S)-N-hydroxy-5-methyl-3-(10-oxo-1,9-diazatricyclo-[11.6.1.0^14,19]eicosa-13(20),14(19),15,17-tetraen-11-ylcarbamoyl)hexanamide] | 3 nM | 40000 nM | 0.2 nM |  |  |  |  |
| CC(C)CC(CP(=O)(O)CSc1ccc2ccccc2n1)C(=O)N[C@H]1Cc2cn(c3ccccc23)CCCCCCNC1=O (stereo partly drawn) [Compound 4, (10S)-[4-methyl-2-(9-oxo-1,8-diazatricyclo[10.6.1.0^13,18]nonadeca-12(19),13(18),14,16-tetraen-10-ylcarbamoyl)pentyl] (quinolin-2-ylthiomethyl)phosphinic acid] |  | 50000 nM | 14 nM | > 800 nM | 4 nM | 5000 nM | 5 nM |

— patent EP0712403B1, “MATRIX METALLOPROTEASE INHIBITORS” (SYNTEX (U.S.A.) INC., priority 1993, dated 1995)
